Bounds are passed on as bounds.

T1 sequence (P04629 440-796 limits assumed): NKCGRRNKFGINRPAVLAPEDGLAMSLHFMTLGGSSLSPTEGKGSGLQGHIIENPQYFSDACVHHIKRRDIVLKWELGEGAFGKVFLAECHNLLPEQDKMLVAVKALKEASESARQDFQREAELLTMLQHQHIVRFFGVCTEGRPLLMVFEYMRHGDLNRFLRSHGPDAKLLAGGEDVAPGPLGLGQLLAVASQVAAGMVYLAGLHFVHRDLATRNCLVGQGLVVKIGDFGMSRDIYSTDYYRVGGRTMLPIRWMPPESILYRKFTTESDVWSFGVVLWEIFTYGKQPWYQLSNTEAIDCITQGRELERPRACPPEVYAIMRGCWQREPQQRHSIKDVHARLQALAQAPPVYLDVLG

This assay addresses T1, His-tagged recombinant human TrkA (Homo sapiens, UniProt P04629).
T1 construct: 6HIS tagged cytoplasmic domain from Invitrogen, Cat. No. PV3144; purchased Invitrogen PV3144
In words: TrkA LanthaScreen Eu Kinase Binding Assay. The settings on record: averaged IC50; LanthaScreen Eu kinase binding, TR-FRET; read-out: TrkA enzyme IC50. The method, then: TrkA binding activity was determined in a TrkA LanthaScreen™ Eu Kinase Binding Assay. […] Three fold serial dilutions of compounds of the invention in DMSO were added to a final percentage of 2% DMSO. […] The percent of control was calculated using a ratiometric emission factor. The IC50 values were determined by fitting a four parameter model to the percent of control data.
In general terms: TR-FRET usually uses a lanthanide donor and a delayed reading to cut background.
The IC50 is the concentration that inhibits the measured activity by half. For the compound `Cc1c(-c2cnn(C)c2)nn(-c2ccccc2)c1NC(=O)Nc1cc(C2CC2)nn1-c1ccccc1` [Example 1, 1-(3-cyclopropyl-1-phenyl-1H-pyrazol-5-yl)-3-(1′,4-dimethyl-1-phenyl-1H,1′H-[3,4′-bipyrazol]-5-yl)urea], the IC50 was below 0.1 µM. As for `Cc1cc(NC(=O)Nc2c(C)c(-c3cnn(C)c3)nn2-c2ccccc2)n(-c2ccccc2)n1` [Example 2, 1-(1′,4-dimethyl-1-phenyl-1H,1′H-[3,4′-bipyrazol]-5-yl)-3-(3-methyl-1-phenyl-1H-pyrazol-5-yl)urea], the IC50 fell in the range of 0.1 to 1 µM.

As for `Cc1c(-c2ccc(=O)n(C)c2)nn(-c2ccccc2)c1NC(=O)Nc1cc(C(F)(F)F)nn1-c1ccccc1` [Example 4, 1-(4-methyl-3-(1-methyl-6-oxo-1,6-dihydropyridin-3-yl)-1-phenyl-1H-pyrazol-5-yl)-3-(1-phenyl-3-(trifluoromethyl)-1H-pyrazol-5-yl)urea], the IC50 was below 0.1 µM.

On to `Cc1c(-c2ccn(C)c(=O)c2)nn(-c2ccccc2)c1NC(=O)Nc1cc(C(F)(F)F)nn1-c1ccccc1` [Example 5, 1-(4-methyl-3-(1-methyl-2-oxo-1,2-dihydropyridin-4-yl)-1-phenyl-1H-pyrazol-5-yl)-3-(1-phenyl-3-(trifluoromethyl)-1H-pyrazol-5-yl)urea], for which the IC50 is below 0.1 µM.

As for `Cc1c(-c2cnn(C)c2)nn(-c2ccccc2)c1NC(=O)Nc1c(C)c(C(F)(F)F)nn1-c1ccccc1` [Example 6, 1-(1′,4-dimethyl-1-phenyl-1H,1′H-[3,4′-bipyrazol]-5-yl)-3-(4-methyl-1-phenyl-3-(trifluoromethyl)-1H-pyrazol-5-yl)urea], the IC50 is 0.1 to 1 µM. In the case of `Cc1c(-c2cnn(C)c2)nn(-c2ccccc2)c1NC(=O)Nc1cc(C2CC2(F)F)nn1-c1ccccc1` (centres unmarked) [Example 7, 1-(3-(2,2-difluorocyclopropyl)-1-phenyl-1H-pyrazol-5-yl)-3-(1′,4-dimethyl-1-phenyl-1H,1′H-[3,4′-bipyrazol]-5-yl)urea], the IC50 was below 0.1 µM. The figure for `Cc1c(-c2cnn(C)c2)nn(-c2ccccc2)c1NC(=O)Nc1cc(C(C)C)nn1-c1ccccc1` [Example 8, 1-(1′,4-dimethyl-1-phenyl-1H,1′H-[3,4′-bipyrazol]-5-yl)-3-(3-isopropyl-1-phenyl-1H-pyrazol-5-yl)urea] is 0.1 to 1 µM; for `Cc1c(-c2cnn(C)c2)nn(-c2ccccc2)c1NC(=O)Nc1cc(CC(F)(F)F)nn1-c1ccccc1` [Example 9, 1-(1′,4-dimethyl-1-phenyl-1H,1′H-[3,4′-bipyrazol]-5-yl)-3-(1-phenyl-3-(2,2,2-trifluoroethyl)-1H-pyrazol-5-yl)urea] it is 0.1 to 1 µM; for `Cc1c(-c2cnn(C)c2)nn(-c2ccccc2)c1NC(=O)Nc1cc(CC(F)(F)F)nn1-c1ccc(F)cc1` [Example 10, 1-(1′,4-dimethyl-1-phenyl-1H,1′H-[3,4′-bipyrazol]-5-yl)-3-(1-(4-fluorophenyl)-3-(2,2,2-trifluoroethyl)-1H-pyrazol-5-yl)urea] it is 0.1 to 1 µM. The figure for `COc1ncc(-c2nn(-c3ccccc3)c(NC(=O)Nc3cc(C(F)(F)F)nn3-c3ccccc3)c2C)cn1` [Example 11, 1-(3-(2-methoxypyrimidin-5-yl)-4-methyl-1-phenyl-1H-pyrazol-5-yl)-3-(1-phenyl-3-(trifluoromethyl)-1H-pyrazol-5-yl)urea] is below 0.1 µM. For `Cc1c(OCCO)nn(-c2ccccc2)c1NC(=O)Nc1cc(C(F)(F)F)nn1-c1ccccc1` [Example 12, 1-(3-(2-hydroxyethoxy)-4-methyl-1-phenyl-1H-pyrazol-5-yl)-3-(1-phenyl-3-(trifluoromethyl)-1H-pyrazol-5-yl)urea] the value was below 0.1 µM.

Values taken from patent publication US9809578B2, “Pyrazolyl urea, thiourea, guanidine and cyanoguanidine compounds as trkA kinase inhibitors” (Array BioPharma Inc., priority 2012, dated 2017).
